Data from patent US20200405696A1, “INHIBITORS OF INDOLEAMINE 2,3-DIOXYGENASE AND/OR TRYPTOPHAN 2,3-DIOXYGENASE” (IDORSIA PHARMACEUTICALS LTD, priority 2018, published 2020).

Columns and labels:
[1] = target: T1, Recombinant full-length human IDO1 (Homo sapiens, UniProt P14902); assay: IDO1 enzymatic assay (NFK quantified by LCMS); format: biochemical; conditions: 2 nM enzyme, 5 μM L-tryptophan, pH6.5, 30 minutes pre-incubation at RT; mean values when measured multiple times; read-out: hIDO activity (IC50 in nM)
T1 construct: Recombinant full-length human IDO1 with a N-terminal hexahistidine tag; hexahistidine (His6) (N); made in house; host or cells: E. coli
In short: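 IC50 comes from four-parameter logistic fits of duplicate data, with NFK quantified by LCMS and normalized to L-Trp-(indole-d5). Compound (0.5 nM–10 μM) was preincubated 30 min at RT with 2 nM E. coli-expressed IDO1 before a 30 min reaction with 5 μM tryptophan in pH 6.5 buffer containing ascorbate and methylene blue.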

[2] = target: T2, Recombinant human TDO comprising amino acids 19-407 (Homo sapiens, UniProt P48775); assay: TDO2 enzymatic assay (NFK quantified by LCMS); format: biochemical; conditions: 15 nM enzyme, 200 μM L-tryptophan, pH7, 30 minutes pre-incubation at RT; mean values when measured multiple times; read-out: hTDO activity (IC50 in nM)
T2 construct: Recombinant human TDO comprising amino acids 19-407 with a N-terminal hexahistidine tag; hexahistidine (His6) (N); made in house; host or cells: E. coli
In short: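 NFK formed over 30 min at RT from 200 μM L-tryptophan was measured by LCMS, normalized to d5-tryptophan, after compound (0.5 nM–10 μM, duplicates, 0.6% DMSO) was preincubated 30 min with 15 nM recombinant His-tagged TDO 19-407 in phosphate buffer pH 7. IC50 from four-parameter logistic fit; repeats averaged.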

T2 sequence (P48775 19-406 limits assumed): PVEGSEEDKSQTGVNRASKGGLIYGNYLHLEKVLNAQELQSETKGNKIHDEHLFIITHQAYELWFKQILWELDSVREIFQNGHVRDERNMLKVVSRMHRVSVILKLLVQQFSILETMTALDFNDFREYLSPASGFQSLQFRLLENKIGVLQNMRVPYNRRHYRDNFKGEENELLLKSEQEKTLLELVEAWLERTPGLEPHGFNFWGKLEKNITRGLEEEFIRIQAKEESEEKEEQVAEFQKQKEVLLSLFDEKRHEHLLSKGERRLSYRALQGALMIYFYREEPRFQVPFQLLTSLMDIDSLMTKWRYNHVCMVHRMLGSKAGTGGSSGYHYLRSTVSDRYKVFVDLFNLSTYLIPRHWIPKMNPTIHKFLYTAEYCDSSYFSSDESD
T1 sequence (P14902 whole entry): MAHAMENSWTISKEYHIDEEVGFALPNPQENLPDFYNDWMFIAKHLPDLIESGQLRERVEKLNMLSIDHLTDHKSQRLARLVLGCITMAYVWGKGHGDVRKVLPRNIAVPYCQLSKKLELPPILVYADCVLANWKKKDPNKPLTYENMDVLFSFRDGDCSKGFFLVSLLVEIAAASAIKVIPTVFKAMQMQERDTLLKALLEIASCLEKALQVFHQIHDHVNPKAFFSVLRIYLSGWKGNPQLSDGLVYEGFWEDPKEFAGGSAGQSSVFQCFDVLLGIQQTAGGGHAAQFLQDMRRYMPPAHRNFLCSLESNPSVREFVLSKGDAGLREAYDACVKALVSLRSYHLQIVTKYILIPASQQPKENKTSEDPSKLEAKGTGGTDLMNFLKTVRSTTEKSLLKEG

SMILES | IC50 [1] | IC50 [2]
CC(F)(F)c1sc2cncn2c1C(O)c1cn(-c2ccc(OCC3(F)COC3)c(Cl)c2)nn1 (racemic) [Example 316, rac-{1-[3-Chloro-4-(3-fluoro-oxetan-3-ylmethoxy)-phenyl]-1H-[1,2,3]triazol-4-yl}-[2-(1,1-difluoro-ethyl)-imidazo[5,1-b]thiazol-3-yl]-methanol] | 13 nM | > 10200 nM
CCc1sc2cncn2c1C(O)c1cn(-c2ccc(OCC3(F)COC3)c(Cl)c2)nn1 (racemic) [Example 317, rac-{1-[3-Chloro-4-(3-fluoro-oxetan-3-ylmethoxy)-phenyl]-1H-[1,2,3]triazol-4-yl}-(2-ethyl-imidazo[5,1-b]thiazol-3-yl)-methanol] | 7.18 nM | > 10200 nM
COc1cc(F)c(-n2cc(C(O)c3c(C4CC4)sc4cncn34)nn2)cc1F (racemic) [Example 318, rac-(2-Cyclopropyl-imidazo[5,1-b]thiazol-3-yl)-[1-(2,5-difluoro-4-methoxy-phenyl)-1H-[1,2,3]triazol-4-yl]-methanol] | 2.99 nM | > 10200 nM
CCc1sc2cncn2c1C(O)c1cn(-c2cc(Cl)c(OC)cc2F)nn1 (racemic) [Example 319, rac-[1-(5-Chloro-2-fluoro-4-methoxy-phenyl)-1H-[1,2,3]triazol-4-yl]-(2-ethyl-imidazo[5,1-b]thiazol-3-yl)-methanol] | 3.18 nM | 4430 nM
CCc1sc2cncn2c1C(O)c1cn(-c2ccc(OCCCO)c(Cl)c2)nn1 (racemic) [Example 320, rac-3-(2-Chloro-4-{4-[(2-ethyl-imidazo[5,1-b]thiazol-3-yl)-hydroxy-methyl]-[1,2,3]triazol-1-yl}-phenoxy)-propan-1-ol] | 2.1 nM | 7780 nM
CCc1sc2cncn2c1C(O)c1cn(-c2cc(F)c(OC)cc2F)nn1 (racemic) [Example 321, rac-[1-(2,5-Difluoro-4-methoxy-phenyl)-1H-[1,2,3]triazol-4-yl]-(2-ethyl-imidazo[5,1-b]thiazol-3-yl)-methanol] | 2.13 nM | 3680 nM
CCc1sc2cncn2c1C(O)c1cn(-c2ccc(O)c(Cl)c2)nn1 (racemic) [Example 323, rac-2-Chloro-4-{4-[(2-ethyl-imidazo[5,1-b]thiazol-3-yl)-hydroxy-methyl]-[1,2,3]triazol-1-yl}-phenol] | 3.82 nM | 1210 nM
CC1(c2sc3cncn3c2C(O)c2cn(-c3ccc(O)c(Cl)c3)nn2)CC1 (racemic) [Example 324, rac-2-Chloro-4-(4-{hydroxy-[2-(1-methyl-cyclopropyl)-imidazo[5,1-b]thiazol-3-yl]-methyl}-[1,2,3]triazol-1-yl)-phenol] | 12.1 nM | 9820 nM
COc1ccc(-n2nnc(C(O)c3c(C4CC4)sc4cncn34)c2C)c(C)c1 (racemic) [Example 326, rac-(2-Cyclopropyl-imidazo[5,1-b]thiazol-3-yl)-[1-(4-methoxy-2-methyl-phenyl)-5-methyl-1H-[1,2,3]triazol-4-yl]-methanol] | 16.9 nM | 9520 nM
COc1ccc(-n2cc(C(O)c3c(C4CC4)sc4cncn34)nn2)cc1F (racemic) [Example 327, rac-(2-Cyclopropyl-imidazo[5,1-b]thiazol-3-yl)-[1-(3-fluoro-4-methoxy-phenyl)-1H-[1,2,3]triazol-4-yl]-methanol] | 4.29 nM | > 10200 nM
CC(F)(F)c1sc2cncn2c1C(O)c1cn(-c2ccc(O)c(Cl)c2)nn1 (racemic) [Example 329, rac-2-Chloro-4-(4-{[2-(1,1-difluoro-ethyl)-imidazo[5,1-b]thiazol-3-yl]-hydroxy-methyl}-[1,2,3]triazol-1-yl)-phenol] | 2.49 nM | 9930 nM
COCc1ccc(-n2cc(C(O)c3c(C4CC4)sc4cncn34)nn2)cc1 (racemic) [Example 330, rac-(2-Cyclopropyl-imidazo[5,1-b]thiazol-3-yl)-[1-(4-methoxymethyl-phenyl)-1H-[1,2,3]triazol-4-yl]-methanol] | 31.6 nM | > 10200 nM
Oc1cc(F)c(-n2cc(C(O)c3c(C4CC4)sc4cncn34)nn2)cc1F (racemic) [Example 331, rac-4-{4-[(2-Cyclopropyl-imidazo[5,1-b]thiazol-3-yl)-hydroxy-methyl]-[1,2,3]triazol-1-yl}-2,5-difluoro-phenol] | 4.55 nM | 7180 nM
CCc1sc2cncn2c1C(O)c1cn(-c2cc(F)c(O)cc2F)nn1 (racemic) [Example 332, rac-4-{4-[(2-Ethyl-imidazo[5,1-b]thiazol-3-yl)-hydroxy-methyl]-[1,2,3]triazol-1-yl}-2,5-difluoro-phenol] | 5.37 nM | 2820 nM
COc1cc(F)c(-n2nnc(C(O)c3c(C4CC4)sc4cncn34)c2C)cc1Cl (racemic) [Example 333, rac-[1-(5-Chloro-2-fluoro-4-methoxy-phenyl)-5-methyl-1H-[1,2,3]triazol-4-yl]-(2-cyclopropyl-imidazo[5,1-b]thiazol-3-yl)-methanol] | 1.46 nM | > 10200 nM
COc1ccc(-n2nnc(C(O)c3c(C4CC4)sc4cncn34)c2I)cc1 (racemic) [Example 334, rac-(2-Cyclopropyl-imidazo[5,1-b]thiazol-3-yl)-[5-iodo-1-(4-methoxy-phenyl)-1H-[1,2,3]triazol-4-yl]-methanol] | 12.1 nM | 7280 nM
COc1ccc(-n2nnc(C(O)c3c(C4CC4)sc4cncn34)c2F)cc1 (racemic) [Example 336, rac-(2-Cyclopropyl-imidazo[5,1-b]thiazol-3-yl)-[5-fluoro-1-(4-methoxy-phenyl)-1H-[1,2,3]triazol-4-yl]-methanol] | 32.7 nM | > 10200 nM
COc1ccc(-n2cc(C(O)c3c([C@@H]4C[C@@H]4F)sc4cncn34)nn2)cc1 (relative stereo) [Example 93, [2-(cis-2-Fluoro-cyclopropyl)-imidazo[5,1-b]thiazol-3-yl]-[1-(4-methoxy-phenyl)-1H-[1,2,3]triazol-4-yl]-methanol] | 25 nM | > 10200 nM
COc1ccc(-n2cc(C(O)c3c([C@@H]4C[C@H]4F)sc4cncn34)nn2)cc1 (relative stereo) [Example 94, [2-(trans-2-Fluoro-cyclopropyl)-imidazo[5,1-b]thiazol-3-yl]-[1-(4-methoxy-phenyl)-1H-[1,2,3]triazol-4-yl]-methanol] | 12.8 nM | > 10200 nM
CC(C)(O)CCOc1ccc(-n2cc(C(O)c3c([C@@H]4C[C@H]4F)sc4cncn34)nn2)cc1Cl (relative stereo) [Example 308, 4-[2-Chloro-4-(4-{[2-(trans-2-fluoro-cyclopropyl)-imidazo[5,1-b]thiazol-3-yl]-hydroxy-methyl}-[1,2,3]triazol-1-yl)-phenoxy]-2-methyl-butan-2-ol] | 12.7 nM | > 10200 nM
CC(C)(O)CCOc1ccc(-n2cc(C(O)c3c([C@@H]4C[C@@H]4F)sc4cncn34)nn2)cc1Cl (relative stereo) [Example 309, 4-[2-Chloro-4-(4-{[2-(cis-2-fluoro-cyclopropyl)-imidazo[5,1-b]thiazol-3-yl]-hydroxy-methyl}-[1,2,3]triazol-1-yl)-phenoxy]-2-methyl-butan-2-ol] | 17 nM | > 10200 nM
OC(c1cn(-c2ccc(OCc3ccccc3)c(F)c2)nn1)c1c([C@@H]2C[C@H]2F)sc2cncn12 (relative stereo) [Example 322, [1-(4-Benzyloxy-3-fluoro-phenyl)-1H-[1,2,3]triazol-4-yl]-[2-(trans-2-fluoro-cyclopropyl)-imidazo[5,1-b]thiazol-3-yl]-methanol] | 16.2 nM | > 10200 nM
Oc1ccc(-n2cc(C(O)c3c([C@@H]4C[C@@H]4F)sc4cncn34)nn2)cc1Cl (relative stereo) [Example 325, 2-Chloro-4-(4-{[2-(cis-2-fluoro-cyclopropyl)-imidazo[5,1-b]thiazol-3-yl]-hydroxy-methyl}-[1,2,3]triazol-1-yl)-phenol] | 8.31 nM | > 10200 nM
Oc1ccc(-n2cc(C(O)c3c([C@@H]4C[C@H]4F)sc4cncn34)nn2)cc1Cl (relative stereo) [Example 328, 2-Chloro-4-(4-{[2-(trans-2-fluoro-cyclopropyl)-imidazo[5,1-b]thiazol-3-yl]-hydroxy-methyl}-[1,2,3]triazol-1-yl)-phenol] | 13.1 nM | > 10200 nM
COc1ccc(-n2nnc(C(O)c3c([C@@H]4C[C@H]4F)sc4cncn34)c2F)cc1 (relative stereo) [Example 335, [2-(trans-2-Fluoro-cyclopropyl)-imidazo[5,1-b]thiazol-3-yl]-[5-fluoro-1-(4-methoxy-phenyl)-1H-[1,2,3]triazol-4-yl]-methanol] | 23 nM | > 10200 nM
O[C@@H](c1cn(-c2ccccc2)nn1)c1c(C2CC2)sc2cncn12 [Example 2a, (R)-(2-Cyclopropyl-imidazo[5,1-b]thiazol-3-yl)-(1-phenyl-1H-[1,2,3]triazol-4-yl)-methanol] | 11.7 nM | > 10200 nM
COc1ccc(-n2cc([C@H](O)c3c(C4CC4)sc4cncn34)nn2)cc1 [Example 9a, (R)-(2-Cyclopropyl-imidazo[5,1-b]thiazol-3-yl)-[1-(4-methoxy-phenyl)-1H-[1,2,3]triazol-4-yl]-methanol] | 5.98 nM | > 10200 nM
